Assay results taken from article PMC6892255, “Identification of a potent small-molecule inhibitor of bacterial DNA repair that potentiates quinolone antibiotic activity in methicillin-resistant Staphylococcus aureus^” (Bioorganic & Medicinal Chemistry, 2019).

What was measured:
E. coli topoisomerase IV = target: T1, E. coli topoisomerase IV (Escherichia coli, UniProt P0AFI2+P20083); assay: Topoisomerase IV supercoiling relaxation assay (pQE80L); format: biochemical; settings: at 12.5 µM (compounds)
T1 construct: purchased Inspiralis
T1 sequence (P0AFI2 whole entry): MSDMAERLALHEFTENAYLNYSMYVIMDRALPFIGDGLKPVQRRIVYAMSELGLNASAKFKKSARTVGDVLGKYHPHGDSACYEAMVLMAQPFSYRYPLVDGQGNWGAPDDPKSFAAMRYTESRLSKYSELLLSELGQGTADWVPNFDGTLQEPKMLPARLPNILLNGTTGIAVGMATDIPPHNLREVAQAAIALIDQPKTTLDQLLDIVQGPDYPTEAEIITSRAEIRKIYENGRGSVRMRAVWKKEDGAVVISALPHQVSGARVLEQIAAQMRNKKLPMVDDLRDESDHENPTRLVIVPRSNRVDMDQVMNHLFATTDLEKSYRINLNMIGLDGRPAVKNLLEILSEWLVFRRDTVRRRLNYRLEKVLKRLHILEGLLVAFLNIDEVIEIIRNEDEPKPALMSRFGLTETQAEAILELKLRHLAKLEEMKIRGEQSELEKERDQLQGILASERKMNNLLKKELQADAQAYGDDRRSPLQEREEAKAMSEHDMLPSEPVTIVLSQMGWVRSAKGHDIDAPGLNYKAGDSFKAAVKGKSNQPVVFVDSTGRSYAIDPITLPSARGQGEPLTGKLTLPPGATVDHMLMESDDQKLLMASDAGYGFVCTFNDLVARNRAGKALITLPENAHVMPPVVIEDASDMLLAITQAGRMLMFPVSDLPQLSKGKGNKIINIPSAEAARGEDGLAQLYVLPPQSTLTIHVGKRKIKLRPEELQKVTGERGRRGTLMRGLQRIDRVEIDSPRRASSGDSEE
T1 sequence (P20083 whole entry): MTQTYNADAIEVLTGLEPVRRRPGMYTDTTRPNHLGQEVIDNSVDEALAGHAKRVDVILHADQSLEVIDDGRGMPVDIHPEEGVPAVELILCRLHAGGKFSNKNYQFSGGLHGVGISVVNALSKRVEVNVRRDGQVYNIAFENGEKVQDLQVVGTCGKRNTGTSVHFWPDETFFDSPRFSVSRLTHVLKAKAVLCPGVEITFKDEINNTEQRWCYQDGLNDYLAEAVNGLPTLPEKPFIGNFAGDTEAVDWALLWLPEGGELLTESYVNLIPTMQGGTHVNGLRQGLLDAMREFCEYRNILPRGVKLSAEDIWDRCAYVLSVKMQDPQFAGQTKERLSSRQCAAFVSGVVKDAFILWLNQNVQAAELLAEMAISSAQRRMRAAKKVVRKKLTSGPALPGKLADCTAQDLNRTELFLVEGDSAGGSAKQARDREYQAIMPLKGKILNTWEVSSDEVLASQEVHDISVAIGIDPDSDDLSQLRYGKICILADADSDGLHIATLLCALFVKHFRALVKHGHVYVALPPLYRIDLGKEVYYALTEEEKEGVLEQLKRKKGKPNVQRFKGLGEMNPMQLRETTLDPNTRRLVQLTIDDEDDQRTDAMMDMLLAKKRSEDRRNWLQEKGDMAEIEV
Description: 2.1. Biological and biochemical methods […]
E. coli DNA gyrase supercoiling assay (Inspiralis) was performed according to the manufacturer’s instructions, ensuring a constant concentration of 1% (v/v) DMSO. Samples were separated on a 1% (w/v) agarose gel prepared with Tris/Borate/EDTA (TBE) buffer (1 M Tris-borate, 20 mM EDTA, pH 8.0). Electrophoresis was performed at 100 V until the bromophenol blue dye had run >6 cm to ensure resolution of relaxed and supercoiled DNA.
The gel was stained with SYBR Safe DNA gel stain (Invitrogen, 1:10,000 dilution in TBE) for 30 min, and visualized on a Syngene Gel Doc system. Band intensity was quantified using ImageJ software and the fraction of supercoiled plasmid was determined as the ratio of the density of the supercoiled band to the total density. Values were background corrected against the no-gyrase control and normalized to DMSO control for dose-response analysis.
E. coli topoisomerase IV supercoiling relaxation assay (Inspiralis) was performed according to the manufacturer’s instructions, ensuring a constant concentration of 1% (v/v) DMSO.
Supercoiled pQE80L was prepared via plasmid purification and used as the substrate for the reaction. Reactions were analyzed as described for DNA gyrase assays. […]

JE2 = assay: Synergy experiments with CFX (growth rate method, Chou-Talalay, CompuSyn); format: cell-based, Staphylococcus aureus
Description: A more precise method to determine EC50 values for individual compounds and combinations was used to increase accuracy for CI calculations. […]
Synergy experiments were performed as described for MIC assays. Two-fold serial dilutions […]
carried out at 37 °C, with shaking at 220 r.p.m. OD600 was recorded every 30 min over a 17 h period. Measurements were background corrected against the no-inocula control before a growth curve of OD600 against time was constructed. The gradient of the exponential phase was obtained by linear regression. Gradients were normalized against the smallest and largest value within the respective data set prior to analysis with the CompuSyn software (http://www.combosyn.com/) to calculate combination index (CI) and dose-reduction index (DRI) values for each drug combination. […]

## O=C(O)c1cn(C2CC2)c2cc(N3CCN(C(=S)Nc4ccc(C(F)(F)F)cc4)CC3)c(F)cc2c1=O [Compound 10]
E. coli topoisomerase IV
  Inhibition of topoisomerase IV: not inhibited and not
JE2; JE2, combination with CFX, CompuSyn
  Dose-reduction index (DRI): 2.8
JE2; JE2, constant-ratio combination with CFX, CompuSyn
  Combination index (CI) with CFX: 0.70
JE2; Staphylococcus aureus, JE2, rate of exponential growth phase over 17 h at 37 °C
  EC50: 2800 ± 200 nM
